The Kinase Knowledgebase extract (Sharma et al. 2016)
pIC50: −log10 of the molar value.

These molecules were tested against MAPK14;MAPK11;MAPK12 (human) (UniProt Q16539) (assay: Inhibition of p38 Kinase Activity).
In the case of Cc1ccc(C(N)=O)cc1Nc1nc(N[C@H]2CCNC2)nc(OCC(C)(C)C)n1, the pIC50 was > 6.00.
In the case of CCCNC(=O)c1ccc(C)c(Nc2nc(O[C@H]3CCNC3)nc(N(C)CC(C)(C)C)n2)c1, the pIC50 was > 6.00.
Cc1ccc(C(N)=O)cc1Nc1nc(N[C@H]2CCN(Cc3ccccc3)C2)nc(N(C)CC(C)(C)C)n1 was tested, and the pIC50 was > 6.00.
In the case of Cc1ccc(C(N)=O)cc1Nc1nc(NCC2CCC3CC2C3(C)C)nc(NC2CCNC2)n1 (stereo unspecified), the pIC50 was > 6.00.
CC(CNc1nc(Nc2ccc3ncsc3c2)nc(N2CC3CC2CN3C(=O)C2CCOC2)n1)c1ccccc1 (stereo unspecified) was tested, and the pIC50 was > 5.00.
With CC(C)c1nc(Nc2ccc3ncsc3c2)nc(N2CCNCC2)n1 the pIC50 was > 5.00.
Cc1ccc(C(=O)Nc2ccccc2)cc1Nc1nc(N[C@H]2CCNC2)nc(N(C)CC(C)C)n1 was tested, and the pIC50 was > 6.00.
In the case of CC(CNc1nc(Nc2ccc3ncsc3c2)nc(N2CCN(C(=O)c3ccccc3)CC2)n1)c1ccccc1 (stereo unspecified), the pIC50 was > 5.00.
With Cc1ccc(C(N)=O)cc1Nc1nc(NC2Cc3ccccc3C2)nc(N[C@@H]2CCNC2)n1 the pIC50 was > 6.00.
In the case of Cc1ccc(C(N)=O)cc1Nc1nc(N[C@H]2CCN(S(C)(=O)=O)C2)nc(N(C)CC(C)C)n1, the pIC50 was > 6.00.
With Cc1ccc(C(N)=O)cc1Nc1nc(N[C@H]2CCCC[C@H]2O)nc(N(C)CC(C)C)n1 the pIC50 was > 6.00.
Cc1ccc2c(c1)ncn2-c1nc(F)cc(NCCOC(C)C)n1 was tested, and the pIC50 was > 5.00.
With Cc1ccc(C(N)=O)cc1Nc1nc(NCC23CC4CC(CC(C4)C2)C3)nc(NC2CCNC2)n1 (stereo unspecified) the pIC50 was > 6.00.
Cc1cc2c(cc1Nc1nc(N[C@H]3CCNC3)nc(N(C)CC(C)(C)C)n1)C(=O)NC2 was tested, and the pIC50 was > 6.00.
In the case of COCCCN1CCC(Nc2nc(Nc3cc(C(N)=O)ccc3C)nc(N(C)CC(C)C)n2)C1 (stereo unspecified), the pIC50 was > 6.00.
With CCNC(=O)N1CCN(c2nc(NCC(C)c3ccccc3)nc(Nc3ccc4ncsc4c3)n2)CC1 (stereo unspecified) the pIC50 was > 5.00.
Cc1ccc(C(N)=O)cc1Nc1nc(NC2CCN(C(C)C)CC2)nc(N(C)CC(C)(C)C)n1 was tested, and the pIC50 was > 6.00.
In the case of Cc1ccc(C(N)=O)cc1Nc1nc(N[C@H]2CCNC2)nc(N(C)CC(C)C(F)(F)F)n1 (stereo partly specified), the pIC50 was > 6.00.
In the case of Cc1ccc(C(N)=O)cc1Oc1nc(N[C@@H]2CCNC2)nc(N(C)CC(C)(C)C)n1, the pIC50 was > 4.52.
CNCCN(C)c1nc(NCC(C)c2ccccc2)nc(Oc2ccc3ncsc3c2)n1 (stereo unspecified) was tested, and the pIC50 was > 5.00.
Cc1ccc(C(N)=O)cc1Nc1nc(NCC(C)c2ccc(Cl)cc2)nc(N[C@H]2CCNC2)n1 (stereo partly specified) was tested, and the pIC50 was > 6.00.
For C[C@H](CNc1nc(Nc2ccc3ncsc3c2)nc(N(C)CCN(C)C(=O)CCC(=O)O)n1)c1ccccc1, the pIC50 was > 5.00.
CC1(C)C2CCC(CNc3nc(N)nc(Nc4ccc(S(=O)(=O)N(C=O)c5ncccn5)cc4)n3)C1C2 (stereo unspecified) was tested, and the pIC50 was > 5.00.
For Cc1ccc(C(N)=O)cc1Nc1nc(NC2CNC2)nc(N(C)CC(C)(C)C)n1, the pIC50 was > 6.00.
In the case of CC(C)NC(=O)N(C)CCCN(C)c1nc(NCC(C)c2ccccc2)nc(Nc2ccc3ncsc3c2)n1 (stereo unspecified), the pIC50 was > 5.00.
In the case of Cc1ccc(C(N)=O)cc1Nc1nc(N[C@H]2CCNC2)nc(N(C)CC(C)c2ccccc2)n1 (stereo partly specified), the pIC50 was > 6.00.
CCC[C@@H]1C[C@@H](Nc2nc(Nc3cc(C(N)=O)ccc3C)nc(N(C)CC(C)(C)C)n2)CN1 was tested, and the pIC50 was > 6.00.
For CCOC(=O)N1CCC(N(C)c2nc(Nc3cc(C(N)=O)ccc3C)nc(N(C)CC(C)C)n2)C1 (stereo unspecified), the pIC50 was > 6.00.
CNC(=O)c1ccc(C)c(Sc2nc(N[C@@H]3CCNC3)nc(N(C)CC(C)(C)C)n2)c1 was tested, and the pIC50 was > 4.52.
For CONC(=O)c1ccc(C)c(Nc2nc(N[C@H]3CCN(C)C3)nc(N(C)CC(C)(C)C)n2)c1, the pIC50 was > 6.00.
With Cc1ccc(C(=O)NC(C)C)cc1Nc1nc(N[C@H]2CCNC2)nc(N(C)CC(C)C)n1 the pIC50 was > 6.00.
With Cc1ccc(C(N)=O)cc1N(C)c1nc(NC2CCCC2)nc(N[C@H]2CCNC2)n1 the pIC50 was > 6.00.
CNC(=O)c1ccc(C)c(Nc2nc(N[C@H]3CCNC3)nc(N(C)CC(C)(C)C)n2)c1 was tested, and the pIC50 was > 6.00.
CC(C)C(=O)N1CC2CC1CN2c1nc(NCC(C)c2ccccc2)nc(Nc2ccc3ncsc3c2)n1 (stereo unspecified) was tested, and the pIC50 was > 5.00.
In the case of CNC(=O)c1ccc(C)c(Nc2nc(NC3CNC3)nc(N(C)CC(C)(C)C)n2)c1, the pIC50 was > 6.00.
For CONC(=O)c1ccc(C)c(Nc2nc(N[C@H]3CNC(=O)C3)nc(N(C)CC(C)(C)C)n2)c1, the pIC50 was > 6.00.
Cc1ccc(C(N)=O)cc1Nc1nc(NC2CCCc3ccccc32)nc(N[C@@H]2CCNC2)n1 (stereo partly specified) was tested, and the pIC50 was > 6.00.
In the case of CC1(C)[C@@H]2CC[C@@H](CNc3nc(NC4CCNCC4)nc(N4CCc5ccc([N+](=O)[O-])cc54)n3)[C@H]1C2, the pIC50 was > 6.00.
CC1(C)[C@H]2CCC(CNc3nc(Cl)nc(Nc4ccc(S(=O)(=O)Nc5ncccn5)cc4)n3)[C@@H]1C2 (stereo partly specified) was tested, and the pIC50 was > 5.00.
With Clc1nc(Nc2ccc3ncsc3c2)nc(N2CCCC(c3ccccc3)C2)n1 (stereo unspecified) the pIC50 was > 5.00.
With CNCCN(C)c1nc(NCC2CCC3CC2C3(C)C)nc(Nc2ccc3ncccc3c2)n1 (stereo unspecified) the pIC50 was > 5.00.
In the case of Cc1ccc(C(N)=O)cc1Nc1nc(N[C@H]2CCNC2)nc(N(C)CC(C)c2ccc(Cl)cc2)n1 (stereo partly specified), the pIC50 was > 6.00.
In the case of CC1(C)C2CCC(CNc3nc(Nc4ccc5[nH]nnc5c4)nc(N4CCNCC4)n3)C1C2 (stereo unspecified), the pIC50 was > 5.00.
With Cc1c(Nc2nc(NCC(C)c3ccccc3)nc(N3CCNCC3)n2)ccc2ncsc12 (stereo unspecified) the pIC50 was > 5.00.
In the case of CC(Cc1ccccc1)Nc1nc(Nc2ccc3ncsc3c2)nc(N(C)C)n1 (stereo unspecified), the pIC50 was > 5.00.
Cc1ccc(C(N)=O)cc1Nc1nc(NC2CCN(Cc3ccc(C(C)C)cc3)C2)nc(N(C)CC(C)C)n1 (stereo unspecified) was tested, and the pIC50 was > 6.00.
CCCNC(=O)N1CC[C@@H](Nc2nc(Nc3cc(C(=O)NOC)ccc3C)nc(N(C)CC(C)(C)C)n2)C1 was tested, and the pIC50 was > 6.00.
For Cc1cc2c(cc1Cl)C(=O)N2c1nc(N[C@H]2CCNC2)nc(N(C)CC(C)(C)C)n1, the pIC50 was > 6.00.
With Cc1ccc(C(N)=O)cc1Nc1nc(NC2CCN(Cc3ccccc3)C2)nc(N(C)CC(C)C)n1 (stereo unspecified) the pIC50 was > 6.00.
In the case of CONC(=O)c1ccc(C)c(Sc2nc(N[C@@H]3CCNC3)nc(N(C)CC(C)(C)C)n2)c1, the pIC50 was > 4.52.
For CONC(=O)c1ccc(C)c(Nc2nc(F)cc(N(C)CC(C)(C)C)n2)c1, the pIC50 was > 6.00.
CN(C)c1nc(Nc2ccc3ncsc3c2)nc(NC(C)(C)Cc2ccccc2)n1 was tested, and the pIC50 was > 5.00.
CC(CNc1nc(Nc2ccc3ncsc3c2)nc(N2CC3CC2CN3C(=O)Cc2ccc(Cl)c(Cl)c2)n1)c1ccccc1 (stereo unspecified) was tested, and the pIC50 was > 5.00.
For Cc1ccc(-c2n[nH]c(=O)[nH]2)cc1Nc1nc(N(C)CC(C)(C)C)nc(N2CCCN(C)CC2)n1, the pIC50 was > 6.00.
With COC(=O)c1ccc(C)c(Nc2nc(N[C@H]3CCNC3)nc(N(C)CC(C)(C)C)n2)c1 the pIC50 was > 6.00.
COc1nc(NCC(C)c2ccccc2)nc(Nc2ccc3ncsc3c2)n1 (stereo unspecified) was tested, and the pIC50 was > 5.00.
Cc1ccc(C(N)=O)cc1Nc1nc(N[C@H]2CCN(Cc3ccc(O)cc3)C2)nc(N(C)CC(C)(C)C)n1 was tested, and the pIC50 was > 6.00.
For Clc1nc(Nc2ccc3ncsc3c2)nc(N2CCC3CCCCC3C2)n1 (stereo unspecified), the pIC50 was > 5.00.
With Cc1ccc(-c2n[nH]c(=O)[nH]2)cc1Nc1nc(N[C@@H]2CCNC2)nc(N(C)CC(C)(C)C)n1 the pIC50 was > 6.00.
For CONC(=O)c1ccc(C)c(Sc2nc(N(C)CC(C)(C)C)nc(N3CCCN(C)CC3)n2)c1, the pIC50 was > 4.52.
For Cc1ccccc1NC(=S)N1CCN(c2nc(NCC(C)c3ccccc3)nc(Nc3ccc4ncsc4c3)n2)CC1 (stereo unspecified), the pIC50 was > 5.00.
With CN1CCCN(c2nc(Sc3cc(C(N)=O)ccc3F)nc(N(C)CC(C)(C)C)n2)CC1 the pIC50 was > 4.52.
For Cc1ccc(C(N)=O)cc1Nc1nc(NC2CCN(Cc3ccc(O)cc3)C2)nc(N(C)CC(C)C)n1 (stereo unspecified), the pIC50 was > 6.00.
In the case of Cc1ccc(C(N)=O)cc1Nc1nc(N[C@@H]2CCNC2)nc(OC[C@@H]2CC[C@H]3C[C@H]2C3(C)C)n1, the pIC50 was > 6.00.
CN(CC1CCCCC1)c1nc(Nc2ccc3ncsc3c2)nc(N2CCNCC2)n1 was tested, and the pIC50 was > 5.00.
In the case of Cc1ccc(C(N)=O)cc1Nc1nc(N[C@H]2CCNC2)cc(N(C)CC(C)(C)C)n1, the pIC50 was > 6.00.
In the case of CCCCNc1nc(Nc2cc(C(=O)NOC)ccc2C)nc(N(C)CC(C)(C)C)n1, the pIC50 was > 6.00.
For CONC(=O)c1ccc(C)c(Nc2nc(N[C@@H]3CCNC3)nc(N(C)CC(C)C(F)(F)F)n2)c1 (stereo partly specified), the pIC50 was > 6.00.
CC(=O)N1CCN(c2nc(Nc3ccc4ncsc4c3)nc(N(C)CC3CCC4CC3C4(C)C)n2)CC1 (stereo unspecified) was tested, and the pIC50 was > 5.00.
For CONC(=O)c1ccc(C)c(Nc2nc(N(C)CCN(C)C)nc(N(C)CC(C)(C)C)n2)c1, the pIC50 was > 6.00.
For Cc1ccc(C(N)=O)cc1Nc1cc(NC(C)c2ccccc2)nc(NCC(N)=O)n1 (stereo unspecified), the pIC50 was > 6.00.
With Cc1ccc(C(N)=O)cc1Nc1nc(NCC2(c3ccccc3)CC2)nc(N[C@H]2CCNC2)n1 the pIC50 was > 6.00.
In the case of Cc1ccc(C(N)=O)cc1Nc1nc(NCC(C)c2ccccc2)nc(N[C@@H]2CCNC2)n1 (stereo partly specified), the pIC50 was > 6.00.
For CC(C)Oc1nc(NCC(C)c2ccccc2)nc(Nc2ccc3ncsc3c2)n1 (stereo unspecified), the pIC50 was > 5.00.
CC1(C)[C@H]2CC[C@H](CNc3nc(Nc4ccc5ncsc5c4)nc(N4CCNCC4)n3)[C@@H]1C2 was tested, and the pIC50 was > 5.00.
With CNCCN(C)c1nc(NC[C@@H](C)c2ccccc2)nc(Nc2ccc3ncsc3c2)n1 the pIC50 was > 5.00.
CNCCN(C)c1nc(NCC(C)c2ccccc2)nc(Nc2ccc3nc(C)sc3c2)n1 (stereo unspecified) was tested, and the pIC50 was > 5.00.
For COc1ncc(CN2CC[C@@H](Nc3nc(Nc4cc(C(N)=O)ccc4C)nc(N(C)CC(C)C)n3)C2)c(OC)n1, the pIC50 was > 6.00.
With Cc1ccc(C(=O)NO)cc1Nc1nc(N[C@H]2CCNC2)nc(N(C)CC(C)(C)C)n1 the pIC50 was > 6.00.
For Cc1ccc(-c2nnc[nH]2)cc1Nc1nc(N[C@@H]2CCNC2)nc(N(C)CC(C)(C)C)n1, the pIC50 was > 6.00.
With Cc1ccc(C(N)=O)cc1Nc1nc(N[C@H]2CCN(c3ccccc3N)C2)nc(N(C)CC(C)(C)C)n1 the pIC50 was > 6.00.
COc1ccccc1NC(=O)c1ccc(C)c(Nc2nc(N[C@H]3CCNC3)nc(N(C)CC(C)(C)C)n2)c1 was tested, and the pIC50 was > 6.00.
For CCN(CC(C)(C)C)c1nc(Nc2cc(C(N)=O)ccc2C)nc(N[C@H]2CCNC2)n1, the pIC50 was > 6.00.
In the case of Cc1ccc(C(N)=O)cc1Nc1nc(N[C@H]2CCN(Cc3cccc(Cl)c3)C2)nc(N(C)CC(C)C)n1, the pIC50 was > 6.00.
CONC(=O)c1ccc(C)c(Nc2nc(Cl)nc(N(C)CC(C)(C)C)n2)c1 was tested, and the pIC50 was > 6.00.
In the case of CNCCN(C)c1nc(NCc2ccc(F)cc2F)nc(-n2cnc3ccccc32)n1, the pIC50 was > 5.00.
In the case of COCCC(=O)N1CC[C@@H](Nc2nc(Nc3cc(C(N)=O)ccc3C)nc(N(C)CC(C)C)n2)C1, the pIC50 was > 6.00.
For Cc1ccc(C(N)=O)cc1Nc1nc(N[C@@H]2CCN(C(C)C(F)(F)F)C2)nc(N(C)CC(C)(C)C)n1 (stereo partly specified), the pIC50 was > 6.00.
Cc1ccc(C(N)=O)cc1Nc1nc(N[C@H]2CCN(C(C)C#N)C2)nc(N(C)CC(C)C)n1 (stereo partly specified) was tested, and the pIC50 was > 6.00.
With CONC(=O)c1ccc(C)c(Nc2cc(F)nc(N(C)CC(C)(C)C)n2)c1 the pIC50 was > 6.00.
For CC(CNc1nc(Nc2ccc3ncsc3c2)nc(N2CCN(C(=O)C3CCOC3)CC2)n1)c1ccccc1 (stereo unspecified), the pIC50 was > 5.00.
